From patent publication US8080582B2, “Derivatives of 8-epiblechnic acid and their effects on down-regulation of endothelin (ETA) receptor mRNA” (ScinoPharm Taiwan Ltd., priority 2008, dated 2011)
Entries after “also recorded” stand apart in the source; their conditions may differ. Where two headings read alike, the source gives them in different places.

Columns and labels:
Type in all cases: cell-based
[1] = test system: breast cancer cells (MCF-7); test: MTT cell viability, breast cancer cells; settings: MCF-7, different concentrations (0-0.5 mM), 48 hrs
Protocol: (§1) The cells (1×10^5 cells/well in 24-well plates) were cultured for 24 hrs. Different concentrations of Sal-B and its analogs (0, 50, 100, 150, 200, 250 μg/ml) were added to treat the cells. After treating for 48 hrs, 100 μl MTT solution was added to each well, and the plate was placed in an incubator for 1-4 hrs. After adding 400 μl DMSO to treat the cells for 30 min., 200 μl samples were collected and placed in a 96-well plate to conduct the absorption measurement at 550 nm.
Cancer cells were treated with Sal-B and EBA at concentrations of 0, 0.1, 0.2, 0.3, 0.4, 0.5 mM. After treating for 48 hrs, MTT was added, and then allowed to react for 3 hrs at 37° C. After that, DMSO was added and allowed to react for 30 min., the OD570 absorption values were measured. Cell viability was above 80% when nasopharyngeal cancer cells (Hone-1) were treated with […] Sal-B and EBA. […] But the cell viability remained above 70% for treating with 0.1 mM and 0.2 mM EBA. Similar results were obtained when prostate cancer cells (PC-3) were treated with the drugs: Cell viability was above 80% for treating PC-3 cells with 0.2 mM Sal-B or EBA.

[2] = test system: normal mammary gland cell line (A1N4); test: Cytotoxicity test on normal mammary gland cells
Protocol: as §1

ETAR protein expression = test: Western blot of ETAR protein expression in vascular smooth muscle cells; settings: 100 μg/ml, 48 hrs
Protocol: (§2) The smooth muscle cells (5×10^5 cells in 35 mm culture dish) were treated with Sal-B and its analogs for 48 hrs, and then a proteinase inhibitor solution was used to collect proteins from the cells.
(§3) The protein concentrations in the samples were calculated by using BSA as the standards to construct a standard curve. After mixing Bradford Protein assay reagent evenly with the standards or the samples, the OD595 absorption values were measured. Standard curve was constructed by plotting OD595 values of the BSA standards versus their concentrations. The protein concentrations of the samples were calculated from the standard curve.
(§4) Bio-Rad's Mini-Protean III Dual Slab Cell instrument was used. A 12% polyacrylamide separating gel solution was prepared and placed into a electrophoretic gel preparation device. Deionized water was added to flat the surface of the separating gel solution, and the water was poured off after the gel had coagulated. A stacking gel solution containing 5% polyacrylamide was added and then a comb was inserted. The comb was removed after the stacking gel had coagulated, and the gel was placed into an upright electrophoresis tank. A suitable amount of running buffer was added, and then the protein samples were loaded into the wells of stacking gel layer. […]

ETBR protein expression = test: Western blot of ETBR protein expression in vascular smooth muscle cells; settings: 100 μg/ml, 48 hrs
Protocol: as §2, §3, §4

[3] = test system: ETAR gene expression in PC-3 cells; test: PCR of ETAR gene expression in PC-3 cancer cells; settings: 48 hrs
Protocol: (§5) PC-3 and MCF-7 cancer cells were treated with Sal-B and EBA for 48 hrs, and the identical concentrations of cellular whole RNA were sampled for the synthesis of cDNA by using reverse transcriptase. The PCR method was then used to compare the amounts of endothelin receptor mRNA expression. While the PC-3 cells were treated with either Sal-B or EBA, its ETAR gene expression was not reduced.

[4] = test system: ETAR gene expression in MCF-7 cells; test: PCR of ETAR gene expression in MCF-7 cancer cells; settings: 48 hrs
Protocol: as §5

| Compound | Effect on cancer cell viability [1] | Cytotoxicity to normal cells [2] | ETAR protein expression compared with control (ETAR protein expression) | ETBR protein expression compared with control (ETBR protein expression) | ETAR gene expression [3] | ETAR gene (mRNA) expression [4] | Cytotoxicity to normal cells ([2]; A1N4 normal mammary gland cells, FIG. 2) |
| --- | --- | --- | --- | --- | --- | --- | --- |
| epiblechnic acid [EBA] | no significant effect on cancer cell viability | no significant difference was observed on the cytotoxicity results | significantly reduced | no effect on ETBR protein expression | not reduced | reduced significantly |  |
| O=C(/C=C/c1ccc(O)c2c1[C@H](C(=O)O[C@H](Cc1ccc(O)c(O)c1)C(=O)[O-])[C@@H](c1ccc(O)c(O)c1)O2)O[C@H](Cc1ccc(O)c(O)c1)C(=O)[O-].[Mg+2] [Sal-B, magnesium lithospermate B] | no significant effect on cancer cell viability |  | significantly reduced | no effect on ETBR protein expression | not reduced | can reduce the expression of ETAR mRNA | no significant difference was observed on the cytotoxicity results; also recorded: not highly toxic to normal cells |
